For one experiment, the target named is T1, Adenosine receptor A1 (Homo sapiens, UniProt P30542).
T1 sequence (P30542 whole entry): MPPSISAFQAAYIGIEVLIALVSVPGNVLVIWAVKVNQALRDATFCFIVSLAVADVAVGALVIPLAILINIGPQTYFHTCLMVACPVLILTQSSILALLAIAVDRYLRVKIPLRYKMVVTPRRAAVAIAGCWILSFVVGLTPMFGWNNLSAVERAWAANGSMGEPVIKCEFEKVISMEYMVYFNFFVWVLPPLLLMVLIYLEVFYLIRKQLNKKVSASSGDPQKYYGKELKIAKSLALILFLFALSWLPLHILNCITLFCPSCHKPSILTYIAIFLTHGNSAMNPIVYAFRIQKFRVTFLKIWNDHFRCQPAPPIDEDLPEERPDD

The target in experiment [1] is T2, Alpha-1A adrenergic receptor (Homo sapiens, UniProt P35348).
T2 sequence (P35348 whole entry): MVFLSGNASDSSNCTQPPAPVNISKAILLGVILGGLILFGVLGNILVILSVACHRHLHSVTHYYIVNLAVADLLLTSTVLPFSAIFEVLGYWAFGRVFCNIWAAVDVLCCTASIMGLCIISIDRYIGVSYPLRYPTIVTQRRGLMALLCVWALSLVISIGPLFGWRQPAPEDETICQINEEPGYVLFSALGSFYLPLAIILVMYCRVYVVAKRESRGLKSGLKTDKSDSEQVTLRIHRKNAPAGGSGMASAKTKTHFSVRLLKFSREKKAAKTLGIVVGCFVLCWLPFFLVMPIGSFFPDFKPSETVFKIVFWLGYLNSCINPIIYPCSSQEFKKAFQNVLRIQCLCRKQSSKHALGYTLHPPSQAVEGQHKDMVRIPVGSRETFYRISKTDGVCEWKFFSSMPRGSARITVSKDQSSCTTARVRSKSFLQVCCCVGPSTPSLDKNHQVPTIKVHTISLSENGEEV
The class given is functional, cell-based.

In experiment [2] the target is T3, Alpha-2A adrenergic receptor (Homo sapiens, UniProt P08913).
T3 sequence (P08913 whole entry): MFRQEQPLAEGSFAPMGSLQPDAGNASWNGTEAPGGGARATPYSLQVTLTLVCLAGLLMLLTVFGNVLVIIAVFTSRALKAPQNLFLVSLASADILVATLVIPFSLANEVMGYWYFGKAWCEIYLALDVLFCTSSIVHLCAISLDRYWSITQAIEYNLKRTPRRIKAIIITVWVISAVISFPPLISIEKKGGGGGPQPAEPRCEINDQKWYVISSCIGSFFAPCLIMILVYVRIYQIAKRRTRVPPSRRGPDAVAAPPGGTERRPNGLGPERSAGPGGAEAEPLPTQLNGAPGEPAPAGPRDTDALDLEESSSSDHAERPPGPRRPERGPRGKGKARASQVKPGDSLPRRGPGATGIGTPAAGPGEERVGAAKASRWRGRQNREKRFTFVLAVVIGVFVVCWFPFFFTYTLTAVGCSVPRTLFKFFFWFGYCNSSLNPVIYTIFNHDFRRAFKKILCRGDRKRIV
It counts as functional, cell-based.

A further experiment concerns the target T4, B2 bradykinin receptor (Homo sapiens, UniProt P30411).
T4 sequence (P30411 whole entry): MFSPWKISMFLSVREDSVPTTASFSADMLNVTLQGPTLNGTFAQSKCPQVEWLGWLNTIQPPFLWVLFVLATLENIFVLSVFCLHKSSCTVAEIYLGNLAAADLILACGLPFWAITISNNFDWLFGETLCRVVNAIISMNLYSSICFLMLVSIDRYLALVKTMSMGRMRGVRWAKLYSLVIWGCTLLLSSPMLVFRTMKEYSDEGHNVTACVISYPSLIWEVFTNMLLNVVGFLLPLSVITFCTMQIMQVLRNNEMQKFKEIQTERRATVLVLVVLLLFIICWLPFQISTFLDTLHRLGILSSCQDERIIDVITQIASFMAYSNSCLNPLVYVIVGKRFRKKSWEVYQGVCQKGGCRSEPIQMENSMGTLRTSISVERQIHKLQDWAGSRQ

The target of experiment [3] is T5, Gastrin/cholecystokinin type B receptor (Homo sapiens, UniProt P32239).
T5 sequence (P32239 whole entry): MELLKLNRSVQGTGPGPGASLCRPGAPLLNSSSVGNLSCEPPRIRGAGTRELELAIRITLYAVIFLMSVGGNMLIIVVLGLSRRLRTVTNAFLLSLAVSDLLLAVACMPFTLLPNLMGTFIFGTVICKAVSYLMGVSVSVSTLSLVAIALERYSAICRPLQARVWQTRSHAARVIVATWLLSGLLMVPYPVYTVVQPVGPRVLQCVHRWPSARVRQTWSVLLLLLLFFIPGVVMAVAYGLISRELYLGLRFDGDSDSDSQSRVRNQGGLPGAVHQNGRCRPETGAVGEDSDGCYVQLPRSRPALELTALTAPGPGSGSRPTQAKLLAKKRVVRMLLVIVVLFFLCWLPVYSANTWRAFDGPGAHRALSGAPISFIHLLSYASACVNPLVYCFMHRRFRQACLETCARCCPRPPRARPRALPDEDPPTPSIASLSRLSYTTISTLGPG

The target in experiment [4] is Muscarinic acetylcholine receptor M3 (Homo sapiens, UniProt P20309).
The target in a further experiment is Histamine H1 receptor (Homo sapiens, UniProt P35367).
In experiment [5] the target is T6, 5-hydroxytryptamine receptor 1A (Homo sapiens, UniProt P08908).
T6 sequence (P08908 whole entry): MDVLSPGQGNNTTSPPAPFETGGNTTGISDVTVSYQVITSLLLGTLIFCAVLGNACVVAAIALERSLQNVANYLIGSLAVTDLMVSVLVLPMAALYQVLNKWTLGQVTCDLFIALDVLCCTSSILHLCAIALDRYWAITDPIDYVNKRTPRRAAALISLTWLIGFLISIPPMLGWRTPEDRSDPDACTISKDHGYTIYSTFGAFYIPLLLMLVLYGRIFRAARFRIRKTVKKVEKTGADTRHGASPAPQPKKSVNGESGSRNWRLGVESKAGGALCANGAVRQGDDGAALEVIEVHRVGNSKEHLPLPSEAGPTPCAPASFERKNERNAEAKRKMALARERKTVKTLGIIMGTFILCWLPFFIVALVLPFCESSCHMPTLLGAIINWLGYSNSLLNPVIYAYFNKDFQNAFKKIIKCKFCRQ
It counts as functional, cell-based.

Experiment [6] addresses 5-hydroxytryptamine receptor 2A (Homo sapiens, UniProt P28223). The class given is functional, cell-based.
In experiment [7] the target is 5-hydroxytryptamine receptor 2B (Homo sapiens, UniProt P41595). The class given is functional, cell-based.

From ChEMBL document CHEMBL5291721, “A preclinical secondary pharmacology resource illuminates target-adverse drug reaction associations of marketed drugs” (Nat Commun, 2023) come the findings set out here.

As usually defined, the AC50 is the concentration at which the activity in the assay is half-maximal. Lower therefore signals activity at low concentration.
Also: assay procedure not described here.

Sequence of 5-hydroxytryptamine receptor 2B (P41595 whole entry): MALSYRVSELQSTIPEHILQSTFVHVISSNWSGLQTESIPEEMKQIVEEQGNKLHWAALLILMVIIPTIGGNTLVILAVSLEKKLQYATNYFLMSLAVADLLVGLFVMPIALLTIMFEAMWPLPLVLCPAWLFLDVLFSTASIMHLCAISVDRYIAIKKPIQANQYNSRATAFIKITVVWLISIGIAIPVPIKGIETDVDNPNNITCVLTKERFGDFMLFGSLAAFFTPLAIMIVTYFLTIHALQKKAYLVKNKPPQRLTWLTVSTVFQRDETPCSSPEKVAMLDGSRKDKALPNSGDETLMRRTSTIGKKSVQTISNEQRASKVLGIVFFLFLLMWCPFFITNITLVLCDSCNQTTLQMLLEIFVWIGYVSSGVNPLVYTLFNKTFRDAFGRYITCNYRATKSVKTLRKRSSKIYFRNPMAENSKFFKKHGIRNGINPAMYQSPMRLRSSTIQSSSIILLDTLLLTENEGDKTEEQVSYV
Sequence of Muscarinic acetylcholine receptor M3 (P20309 whole entry): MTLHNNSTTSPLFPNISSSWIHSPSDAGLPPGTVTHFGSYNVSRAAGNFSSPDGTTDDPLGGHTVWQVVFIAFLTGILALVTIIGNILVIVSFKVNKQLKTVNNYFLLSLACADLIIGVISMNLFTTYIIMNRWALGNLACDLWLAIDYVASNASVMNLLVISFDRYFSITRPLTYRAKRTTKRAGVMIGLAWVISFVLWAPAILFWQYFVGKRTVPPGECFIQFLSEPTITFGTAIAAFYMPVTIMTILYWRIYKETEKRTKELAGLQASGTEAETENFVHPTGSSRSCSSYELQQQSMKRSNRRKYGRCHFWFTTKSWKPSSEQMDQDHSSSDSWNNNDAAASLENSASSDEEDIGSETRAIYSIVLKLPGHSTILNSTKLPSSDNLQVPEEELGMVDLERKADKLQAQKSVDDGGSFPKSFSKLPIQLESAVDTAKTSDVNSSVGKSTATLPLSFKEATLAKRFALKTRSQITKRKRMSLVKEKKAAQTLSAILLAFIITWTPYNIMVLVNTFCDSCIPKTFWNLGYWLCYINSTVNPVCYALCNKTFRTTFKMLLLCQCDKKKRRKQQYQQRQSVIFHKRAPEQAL
Sequence of Histamine H1 receptor (P35367 whole entry): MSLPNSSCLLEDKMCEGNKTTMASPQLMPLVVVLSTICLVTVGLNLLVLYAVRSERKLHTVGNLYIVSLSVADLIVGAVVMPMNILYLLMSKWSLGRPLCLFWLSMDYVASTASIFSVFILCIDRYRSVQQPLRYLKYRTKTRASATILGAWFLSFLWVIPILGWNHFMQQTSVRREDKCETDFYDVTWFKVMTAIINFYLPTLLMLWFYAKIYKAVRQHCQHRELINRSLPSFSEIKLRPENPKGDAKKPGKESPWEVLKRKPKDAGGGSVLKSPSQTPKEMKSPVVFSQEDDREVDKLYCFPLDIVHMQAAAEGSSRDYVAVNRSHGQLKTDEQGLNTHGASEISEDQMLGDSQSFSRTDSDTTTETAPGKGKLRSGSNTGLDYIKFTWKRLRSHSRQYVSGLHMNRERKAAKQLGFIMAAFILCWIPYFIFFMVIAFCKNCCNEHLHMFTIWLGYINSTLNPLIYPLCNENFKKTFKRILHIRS
Sequence of 5-hydroxytryptamine receptor 2A (P28223 whole entry): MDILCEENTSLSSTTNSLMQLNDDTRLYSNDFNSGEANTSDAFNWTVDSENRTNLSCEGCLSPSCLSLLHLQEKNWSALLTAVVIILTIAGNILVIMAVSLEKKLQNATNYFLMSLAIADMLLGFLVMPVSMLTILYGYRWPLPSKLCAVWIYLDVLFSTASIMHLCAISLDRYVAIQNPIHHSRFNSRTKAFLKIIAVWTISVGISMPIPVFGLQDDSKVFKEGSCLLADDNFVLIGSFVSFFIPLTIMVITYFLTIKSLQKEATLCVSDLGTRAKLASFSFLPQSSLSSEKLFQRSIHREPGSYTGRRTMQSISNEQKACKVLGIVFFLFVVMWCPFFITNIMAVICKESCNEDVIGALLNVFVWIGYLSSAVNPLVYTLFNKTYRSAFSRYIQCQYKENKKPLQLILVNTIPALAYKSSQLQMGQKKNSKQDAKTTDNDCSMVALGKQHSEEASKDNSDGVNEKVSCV

For `CCCCCCC(C)(C)c1cc(O)c2c(c1)OC(C)(C)C1CCC(=O)CC21` (centres undefined) [NABILONE], the AC50 on Adenosine receptor A1 is over 30 µM; in experiment [1], over 30 µM; in experiment [2] it was over 30 µM; on B2 bradykinin receptor it was over 10 µM; in [3] it was over 30 µM; in experiment [4], over 30 µM. Besides, the AC50 (on Histamine H1 receptor; in experiment [5]; in [6]; in experiment [7]) was over 30 µM each time.
As for `Cc1nc2ccc(CN(C)c3ccc(C(=O)N[C@@H](CCC(=O)O)C(=O)O)s3)cc2c(=O)[nH]1` [RALTITREXED], the AC50 is over 30 µM on Adenosine receptor A1; over 30 µM in experiment [1]; over 30 µM in [2]; over 30 µM at B2 bradykinin receptor; over 10 µM in [3]; over 30 µM in experiment [4]. Further, the AC50 (on Histamine H1 receptor; in experiment [5]; in experiment [6]; in experiment [7]) was over 30 µM in each case.
`O=C1NCCN1CCN1CCC(c2cn(-c3ccc(F)cc3)c3ccc(Cl)cc23)CC1` [SERTINDOLE]: the AC50 was over 30 µM at Adenosine receptor A1; over 30 µM in [1]; over 30 µM at B2 bradykinin receptor; over 30 µM in experiment [3]; 22 µM in experiment [4]; 0.6 µM in experiment [7].
`CCCCN1CCCCC1C(=O)Nc1c(C)cccc1C` (centres undefined) [BUPIVACAINE]: the AC50 (on Adenosine receptor A1; in experiment [2]; at B2 bradykinin receptor; in [3]; in [5]; in [7]) was over 30 µM in each case.
As for `COc1c(C)c2c(c(O)c1C/C=C(\C)CCC(=O)OCCN1CCOCC1)C(=O)OC2` [MYCOPHENOLATE MOFETIL], the AC50 (on Adenosine receptor A1; in [1]; in experiment [2]; on B2 bradykinin receptor; in experiment [3]; in [5]) was over 30 µM throughout. For the same compound, in experiment [7], the AC50 was over 30 µM.
On to `C[C@]12CCC(=O)C=C1CC[C@@H]1[C@@H]2CC[C@@]2(C)[C@H]1CC[C@]2(C)O` [METHYLTESTOSTERONE], for which the AC50 (at Adenosine receptor A1; in experiment [1]; in [2]; on B2 bradykinin receptor; in [3]; in experiment [5]) was over 30 µM in each case. The same compound displayed an AC50 in experiment [7] of 22 µM.
In the case of `COc1ccc2c(c1)c(CC(=O)OCC(=O)O)c(C)n2C(=O)c1ccc(Cl)cc1` [ACEMETACIN], the AC50 is over 30 µM at Adenosine receptor A1; over 30 µM in experiment [1]; over 30 µM in experiment [2]; over 30 µM on B2 bradykinin receptor; over 10 µM in experiment [3]; over 30 µM in experiment [5]. Besides, the half-maximal activity concentration (AC50) in experiment [7] was over 30 µM.
In the case of `Cc1cc2c(OCC(CNC(C)(C)C)OC(=O)c3ccccc3)cccc2[nH]1` (centres undefined) [BOPINDOLOL], the AC50 (at Adenosine receptor A1; in experiment [1]; in [2]; on B2 bradykinin receptor; in experiment [3]; in [5]) was over 30 µM each time. For the same compound, half-maximal activity in [7] (AC50) was put at 19 µM.
In the case of `Cc1c(O)c(=O)ccn1C` [DEFERIPRONE], the AC50 (at Adenosine receptor A1; in [1]; in experiment [2]; on B2 bradykinin receptor; in [3]; in [5]) was over 30 µM in each case. The compound also registered an AC50 in [7] of over 30 µM.
`CCCOc1ccc(C(=O)OCCN(CC)CC)cc1N` [PROPARACAINE]: the AC50 (on Adenosine receptor A1; in experiment [1]; in [2]; at B2 bradykinin receptor; in [3]; in [5]) was over 30 µM in each case. In addition, the AC50 in [7] is over 30 µM.
For the compound `CC[C@]1(O)C[C@@H]2CN(CCc3c([nH]c4ccccc34)[C@@](C(=O)OC)(c3cc4c(cc3OC)N(C)[C@H]3[C@@](O)(C(N)=O)[C@H](O)[C@]5(CC)C=CCN6CC[C@]43[C@@H]65)C2)C1` [VINDESINE], the AC50 (on Adenosine receptor A1; in experiment [1]; in experiment [2]; at B2 bradykinin receptor; in experiment [3]; in experiment [5]) was over 30 µM throughout. This compound also gave an AC50 in experiment [7] of over 30 µM.
`CN1C(=O)COc2c(C(=O)NC3CN4CCC3CC4)cc(Cl)cc21` (centres undefined) [AZASETRON]: the concentration at half-maximal activity (AC50) was over 30 µM on Adenosine receptor A1; over 30 µM in experiment [1]; over 10 µM in [2]; over 30 µM at B2 bradykinin receptor; over 30 µM in experiment [3]; over 30 µM in experiment [5]. Also, the AC50 in experiment [7] is over 30 µM.
For `CC(C)(Oc1ccc(C2CC2(Cl)Cl)cc1)C(=O)O` (centres undefined) [CIPROFIBRATE], the AC50 (at Adenosine receptor A1; in experiment [1]; in experiment [2]; at B2 bradykinin receptor; in experiment [3]; in [5]) was over 30 µM in each case. In experiment [7], this compound displayed an AC50 of over 30 µM.
For the compound `Nc1nc2ccc(OC(F)(F)F)cc2s1` [RILUZOLE], the AC50 (on Adenosine receptor A1; in [1]; in experiment [2]; at B2 bradykinin receptor; in experiment [3]; in experiment [5]) was over 30 µM each time. Further, in experiment [7], the AC50 is over 30 µM.
Regarding `Cc1cccc(C)c1NC(=O)C1CCCCN1C` (centres undefined) [MEPIVACAINE], the AC50 (at Adenosine receptor A1; in [1]; in experiment [2]; at B2 bradykinin receptor; in [3]; in [5]) was over 30 µM in each case. Besides, the AC50 in experiment [7] was over 30 µM.
